According to US20100137313A1 (ASTRAZENECA AB, priority 2008, published 2010):

These molecules were tested against S. pneumoniae Topoisomerase IV ATPase (ParE) (Streptococcus pneumoniae serotype 4, UniProt Q59961) (assay: S. pneumoniae Topoisomerase IV ATPase inhibition). Conditions: values marked * are an average of two or more data points, read-out: % Inh (13 μM) of S. pneumoniae Topoisomerase IV ATPase.
Type: biochemical
Method: S. pneumoniae Topoisomerase IV ATPase Inhibition Activity: Compounds may be tested for inhibition of S. pneumoniae ParE ATPase activity using an ammonium molybdate/malachite green-based phosphate detection assay (Lanzetta, P. A., L. J. Alvarez, P. S. Reinach, and O. A. Candia, 1979, 100: 95-97). Assays are performed in multiwell plates in 30 μl reactions containing: 20 mM Tris buffer pH 8.0, 50 mM ammonium acetate, 8.0 mM magnesium chloride, 0.5 mM ethylenediaminetetraacetic acid, 5% glycerol, 5 mM 1,4-Dithio-DL-threitol, 0.005% Brij-35, 5 μg/ml sheared salmon sperm DNA, 1.25 nM S. pneumoniae ParE, 160 μM ATP, and test compound in dimethylsulfoxide. Reactions are quenched with 30 μl of ammonium molybdate/malachite green detection reagent containing 1.2 mM malachite green hydrochloride, 8.5 mM ammonium molybdate tetrahydrate, and 1 M hydrochloric acid. Plates are read in an absorbance plate reader at 650 nm and percent inhibition values are calculated using dimethylsulfoxide (2%)-containing reactions as 0% inhibition and EDTA-containing ([…]) reactions as 100% inhibition controls. An IC50 measurement of compound potency for each compound can be determined from reactions performed in the presence of 10 different compound concentrations.
Many of the compounds of the invention were tested in an assay substantially similar to the assays described above for measuring the inhibition of E.coli GyrB ATPase, E. coli Topoisomerase IV ATPase, S. aureus GyrB ATPase, and S. pneumoniae Topoisomerase IV ATPase, and had IC50 values of <200 μM in one or more assays.

Sequence of S. pneumoniae Topoisomerase IV ATPase (ParE) (Q59961 whole entry): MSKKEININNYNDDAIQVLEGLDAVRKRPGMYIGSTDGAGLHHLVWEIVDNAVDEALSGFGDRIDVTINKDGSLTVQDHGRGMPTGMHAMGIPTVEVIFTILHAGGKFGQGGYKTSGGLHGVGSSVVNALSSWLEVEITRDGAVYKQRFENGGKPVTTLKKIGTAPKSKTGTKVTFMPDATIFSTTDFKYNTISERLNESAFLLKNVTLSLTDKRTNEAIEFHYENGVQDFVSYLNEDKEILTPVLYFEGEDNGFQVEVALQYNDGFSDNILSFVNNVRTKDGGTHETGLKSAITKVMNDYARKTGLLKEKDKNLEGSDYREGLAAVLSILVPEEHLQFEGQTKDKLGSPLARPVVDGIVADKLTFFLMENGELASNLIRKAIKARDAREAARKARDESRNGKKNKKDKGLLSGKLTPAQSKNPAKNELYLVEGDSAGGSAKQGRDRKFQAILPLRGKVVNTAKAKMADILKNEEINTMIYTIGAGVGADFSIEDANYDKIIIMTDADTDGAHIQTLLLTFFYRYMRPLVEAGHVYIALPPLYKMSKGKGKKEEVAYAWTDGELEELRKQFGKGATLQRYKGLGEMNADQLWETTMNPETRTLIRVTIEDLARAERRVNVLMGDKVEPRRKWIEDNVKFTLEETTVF

First: CCOC(=O)c1cncc(-c2cnc(Nc3ccc(F)c(Cl)c3)nc2NCCCN(C)C)c1 [Example 5, ethyl 5-(2-(3-chloro-4-fluorophenylamino)-4-(3-(dimethylamino)propylamino)pyrimidin-5-yl) nicotinate]
Second: CCOC(=O)c1cncc(-c2cnc(Nc3ccc(F)c(Cl)c3)nc2N2CCC(F)CC2)c1 [Example 121, ethyl 5-[2-[(3-chloro-4-fluorophenyl)amino]-4-(4-fluoropiperidin-1-yl)pyrimidin-5-yl]pyridine-3-carboxylate]
The inhibition at 13 µM of the first is higher: 104% for the first, 49.6% for the second.

First: CCn1cc(-c2cnc(Nc3cc(OC)cc(OC)c3)nc2-n2nc(C(F)(F)F)cc2C)cc(C(=O)O)c1=O [Example 919, 5-(2-(3,5-dimethoxyphenylamino)-4-(5-methyl-3-(trifluoromethyl)-1H-pyrazol-1-yl)pyrimidin-5-yl)-1-ethyl-2-oxo-1,2-dihydropyridine-3-carboxylic acid]
Second: COc1cc(C)cc(Nc2ncc(-c3cncc(C(=O)O)c3)c(-n3nc(C(F)(F)F)cc3C)n2)c1 [Example 777, 5-{2-[(3-methoxy-5-methylphenyl)amino]-4-[5-methyl-3-(trifluoromethyl)-1H-pyrazol-1-yl]pyrimidin-5-yl}pyridine-3-carboxylic acid]
The inhibition at 13 µM of the first is lower: 99% for the first, 100% for the second.

Compared with CN(C)CCCNc1nc(Nc2ccc(F)c(Cl)c2)ncc1-c1cn([Si](C)(C)C(C)(C)C)c2ccccc12 [Example 16, 5-[1-(tert-butyldimethylsilyl)-1H-indol-3-yl]-N^2-(3-chloro-4-fluorophenyl)-N^4-[3-(dimethylamino)propyl] pyrimidin-2,4-diamine], COc1ncc(-c2cnc(Nc3ccc(F)c(Cl)c3)nc2NCCc2ccncc2)cn1 [Example 461, N^2-(3-chloro-4-fluorophenyl)-2′-methoxy-N^4-[2-(pyridin-4-yl)ethyl]-5,5′-bipyrimidine-2,4-diamine] is higher in inhibition at 13 µM: 55.3% for the first, 100% for the second.

O=C(O)c1cncc(-c2cnc(Nc3cccc(F)c3)nc2-n2ccc(C(F)(F)F)n2)c1 [Example 641, 5-{2-[(3-fluorophenyl)amino]-4-[3-(trifluoromethyl)-1H-pyrazol-1-yl]pyrimidin-5-yl}pyridine-3-carboxylic acid] and O=C(O)[C@@H]1C[C@H]1c1cncc(-c2cnc(Nc3ccc(F)c(Cl)c3)nc2-n2ccc(C(F)(F)F)n2)c1 [Example 573, (1,2-trans)-2-(5-(2-(3-chloro-4-fluorophenvlamino)-4-(3-(trifluoromethyl)-1H-pyrazol-1-yl)pyrimidin-5-yl)pyridin-3-yl)cyclopropanecarboxylic acid] are the same in inhibition at 13 µM: 100% for the first, 100% for the second.

COc1cc(C#N)cc(Nc2ncc(-c3cncc(C(=O)O)c3)c(-n3nc(C(F)(F)F)cc3C)n2)c1 [Example 733, 5-{2-[(3-cyano-5-methoxyphenyl)amino]-4-[5-methyl-3-(trifluoromethyl)-1H-pyrazol-1-yl]pyrimidin-5-yl}pyridine-3-carboxylic acid] and Cc1cc(C)cc(Nc2ncc(-c3cc(C(=O)O)cnc3OCCN(C)C)c(-n3nc(C(F)(F)F)cc3C)n2)c1 [Example 1145, 6-(2-(dimethylamino)ethoxy)-5-(2-(3,5-dimethylphenylamino)-4-(5-methyl-3-(trifluoromethyl)-1H-pyrazol-1-yl)pyrimidin-5-yl)nicotinic acid] are the same in inhibition at 13 µM: 100% for the first, 100% for the second.

Compared with O=C(O)c1cc2cc(-c3cnc(Nc4ccc(F)c(Cl)c4)nc3N3CCOCC3)ccc2[nH]1 [Example 1064, 5-(2-(3-Chloro-4-fluorophenylamino)-4-morpholinopyrimidin-5-yl)-1H-indole-2-carboxylic acid], O=C(O)c1cncc(-c2cnc(Nc3ccc(F)c(Cl)c3)nc2N2CCOCC2)c1 [Example 273, 5-(2-(3-chloro-4-fluorophenylamino)-4-morpholinopyrimidin-5-yl)nicotinic acid] is lower in inhibition at 13 µM: 100% for the first, 94.4% for the second.

COc1cc(Nc2ncc(-c3cc(C(=O)NS(C)(=O)=O)c(=O)n(C)c3)c(-n3ccc(C(F)(F)F)n3)n2)cc(OC)c1 [Example 1019, 5-(2-(3,5-Dimethoxyphenylamino)-4-(3-(trifluoromethyl)-1H-pyrazol-1-yl)pyrimidin-5-yl)-1-methyl-N-(methylsulfonyl)-2-oxo-1,2-dihydropyridine-3-carboxamide] and COc1cc(Nc2ncc(-c3cnc(-n4cncn4)c(C(=O)O)c3)c(-n3ccc(C(F)(F)F)n3)n2)cc(OC)c1 [Example 588, 5-(2-(3,5-dimethoxyphenylamino)-4-(3-(trifluoromethyl)-1H-pyrazol-1-yl)pyrimidin-5-yl)-2-(1H-1,2,4-triazol-1-yl)nicotinic acid] are the same in inhibition at 13 µM: 100% for the first, 100% for the second.

First: O=C(O)/C=C/c1cccc(-c2cnc(Nc3ccc(F)c(Cl)c3)nc2-n2nnc3ccccc32)c1 [Example 325, (2E)-3-(3-{4-(1H-benzotriazol-1-yl)-2-[(3-chloro-4-fluorophenyl)amino]pyrimidin-5-yl}phenyl) prop-2-enoic acid]
Second: Cc1cccc(Nc2ncc(-c3cccc(/C=C/C(=O)O)c3)c(-n3nc(C(F)(F)F)cc3C)n2)c1 [Example 695, (2E)-3-(3-{2-[(3-methylphenyl)amino]-4-[5-methyl-3-(trifluoromethyl)-1H-pyrazol-1-yl]pyrimidin-5-yl}phenyl)prop-2-enoic acid]
The inhibition at 13 µM of the first is higher: 102% for the first, 100% for the second.

Compared with CONC(=O)c1cncc(-c2cnc(Nc3ccc(F)c(Cl)c3)nc2-n2ccc(NC(C)=O)n2)c1 [Example 549, 5-{4-[3-(acetylamino)-1H-pyrazol-1-yl]-2-[(3-chloro-4-fluorophenyl)amino]-pyrimidin-5-yl}-N-methoxypyridine-3-carboxamide], CCNS(=O)(=O)c1cncc(-c2cnc(Nc3ccc(F)c(Cl)c3)nc2-n2ccc(C(F)(F)F)n2)c1 [Example 1000, 5-(2-(3-Chloro-4-fluorophenylamino)-4-(3-(trifluoromethyl)-1H-pyrazol-1-yl)pyrimidin-5-yl)-N-ethylpyridine-3-sulfonamide] is lower in inhibition at 13 µM: 94% for the first, 64% for the second.

COc1ncc(-c2cnc(Nc3cc(C)cc(F)c3)nc2-n2ccc(C(F)(F)F)n2)cc1C(=O)O [Example 754, 5-{2-[(3-fluoro-5-methylphenyl)-amino]-4-[3-(trifluoromethyl)-1H-pyrazol-1-yl]pyrimidin-5-yl}-2-methoxypyridine-3-carboxylic acid] and COc1cc(C)cc(Nc2ncc(-c3cnc(OC)c(-c4n[nH]c(=O)o4)c3)c(-n3ccc(C(F)(F)F)n3)n2)c1 [Example 1169, 5-(2-methoxy-5-{2-[(3-methoxy-5-methylphenyl)amino]-4-[3-(trifluoromethyl)-1H-pyrazol-1-yl]pyrimidin-5-yl}pyridin-3-yl)-1,3,4-oxadiazol-2(3H)-one] are the same in inhibition at 13 µM: 100% for the first, 100% for the second.

Cc1cc(-c2nccs2)nn1-c1nc(Nc2ccc(F)c(Cl)c2)ncc1-c1cncc(C(=O)O)c1 [Example 529, 5-{2-[(3-chloro-4-fluorophenyl)amino]-4-[5-methyl-3-(1,3-thiazol-2-yl)-1H-pyrazol-1-yl]pyrimidin-5-yl}pyridine-3-carboxylic acid] and Cc1cc(C(F)(F)F)nn1-c1nc(Nc2ccc(F)c(Cl)c2)ncc1-c1cnc(OCCn2ccnc2)c(C(=O)O)c1 [Example 795, 5-{2-[(3-chloro-4-fluorophenyl)amino]-4-[5-methyl-3-(trifluoromethyl)-1H-pyrazol-1-yl]pyrimidin-5-yl}-2-[2-(1H-imidazol-1-yl)ethoxy]pyridine-3-carboxylic acid] are the same in inhibition at 13 µM: 100% for the first, 100% for the second.

Compared with CCOC(=O)/C=C/c1cccc(-c2cnc(Nc3ccc(F)c(Cl)c3)nc2N2CCOCC2)c1 [Example 166, (E)-ethyl 3-(3-(2-(3-chloro-4-fluorophenylamino)-4-morpholinopyrimidin-5-yl)phenyl)acrylate], CCOC(=O)c1cc2cc(-c3cnc(Nc4ccc(F)c(Cl)c4)nc3NCCCOC)ccc2[nH]1 [Example 1052, Ethyl 5-(2-(3-chloro-4-fluorophenylamino)-4-(3-methoxyproylamino)pyrimidin-5-yl)-1H-indole-2-carboxylate] is lower in inhibition at 13 µM: 37.4% for the first, 0% for the second.

Going from NC(=O)c1cncc(-c2cnc(Nc3ccc(F)c(Cl)c3)nc2NCCc2ccncc2)c1 [Example 474, 5-(2-[(3-chloro-4-fluorophenyl)amino]-4-{[2-(pyridin-4-yl)ethyl]amino}pyrimidin-5-yl)-pyridine-3-carboxamide] to Cc1cc(C(F)(F)F)nn1-c1nc(Nc2ccc(F)c(Cl)c2)ncc1-c1cncc(C(=O)NCCN2CCN(C)CC2)c1 [Example 928, 5-(2-(3-chloro-4-fluorophenylamino)-4-(5-methyl-3-(trifluoromethyl)-1H-pyrazol-1-yl)pyrimidin-5-yl)-N-(2-(4-methylpiperazin-1-yl)ethyl)nicotinamide], the inhibition at 13 µM falls from 100% to 85%.

CN(C)CCCNc1nc(Nc2cc(Cl)cc(Cl)c2)ncc1-c1cccc(/C=C/C(=O)O)c1 [Example 340, (E)-3-(3-(2-(3,5-dichlorophenylamino)-4-(3-(dimethylamino)propylamino)pyrimidin-5-yl)phenyl)acrylic acid] was tested, and the inhibition at 13 µM was 83.3%.
